The text below walks through data of patent US6548495B2, “Dihydro-benzo [B] [1,4] diazepin-2-one derivatives” (Hoffmann-La Roche Inc., priority 2002, dated 2003).

What is called melting point is the temperature of the solid-liquid transition.

As for `Cc1cc(-c2cccc(C3=Nc4cc(N5CCOCC5)c(C(F)(F)F)cc4NC(=O)C3)c2)on1` [Example 3, 4-[3-(3-Methyl-isoxazol-5-yl)-phenyl]-7-morpholin-4-yl-8-trifluoromethyl-1,3-dihydro-benzo[b][1,4]diazepin-2-one], the melting point is 170 °C. With `N#Cc1cccc(C2=Nc3ccc(-n4cc(C#N)c(-c5ccccc5Cl)c4)cc3NC(=O)C2)c1` [Example 5, 4-(2-Chloro-phenyl)-1-[2-(3-cyano-phenyl)-4-oxo-4,5-dihydro-3H-benzo[b][1,4]diazepin-7-yl]-1H-pyrrole-3-carbonitrile] the figure was 252 °C (dec.); with `N#Cc1cccc(C2=Nc3ccc(-n4cc(C#N)c(-c5ccccc5)c4)cc3NC(=O)C2)c1` [Example 6, 1-[2-(3-Cyano-phenyl)-4-oxo-4,5-dihydro-3H-benzo[b][1,4]diazepin-7-yl]-4-phenyl-1H-pyrrole-3-carbonitrile], 274 °C (dec.). On to `O=C1CC(c2cccc(I)c2)=Nc2ccc(-n3cccc3)cc2N1` [Example 7, 4-(3-Iodo-phenyl)-8-pyrrol-1-yl-1,3-dihydro-benzo[b][1,4]diazepin-2-one], for which the melting point is 215 to 217 °C (dec.). Turning to `NC(=O)c1cccc(C2=Nc3ccc(-n4cccc4)cc3NC(=O)C2)c1` [Example 8, 3-(4-oxo-7-Pyrrol-1-yl-4,5-dihydro-3H-benzo[b][1,4]diazepin-2-yl)-benzamide], the melting point was 238 to 239 °C (dec.).

Compound `COCCOc1cc2c(cc1-n1cccc1)NC(=O)CC(c1cccc(C#N)c1)=N2` [Example 10, 3-[8-(2-Methoxy-ethoxy)-4-oxo-7-pyrrol-1-yl-4,5-dihydro-3H-benzo[b][1,4]diazepin-2-yl]-benzonitrile] came in with a melting point of 189 to 195 °C. With `COC(=O)c1cccn1-c1ccc2c(c1)NC(=O)CC(c1cccc(C#N)c1)=N2` [Example 15, 1-[2-(3-Cyano-phenyl)-4-oxo-4,5-dihydro-3H-benzo[b][1,4]diazepin-7-yl]-1H-pyrrole-2-carboxylic Acid Methyl Ester], the melting point was > 207 °C (dec.).

`CCOC(=O)c1csc(-c2cccc(C3=Nc4ccc(-n5cccc5)cc4NC(=O)C3)c2)n1` [Example 19, 2-[3-(4-oxo-7-Pyrrol-1-yl-4,5-dihydro-3H-benzo[b][1,4]diazepin-2-yl)-phenyl]-thiazole-4-carboxylic Acid Ethyl Ester] showed a melting point of 198 to 201 °C.

Take `O=C1CC(c2cccc(-c3ocnc3C(=O)NCCO)c2)=Nc2ccc(-n3cccc3)cc2N1` [Example 24, 5-[3-(4-oxo-7-Pyrrol-1-yl-4,5-dihydro-3H-benzo[b][1,4]diazepin-2-yl)-phenyl]-oxazole-4-carboxylic Acid (2-Hydroxy-ethyl)-amide]: the melting point fell in the range of 228 to 230 °C. Consider `O=C1CC(c2cccc(-c3nc(CO)co3)c2)=Nc2ccc(-n3cccc3)cc2N1` [Example 26, 4-[3-(4-Hydroxymethyl-oxazol-2-yl)-phenyl]-8-pyrrol-1-yl-1,3-dihydro-benzo[b][1,4]diazepin-2-one], for which the melting point fell in the range of 240 to 242 °C. For the compound `CCOC(=O)c1nc(-c2cccc(C3=Nc4ccc(-n5cccc5)cc4NC(=O)C3)c2)cs1` [Example 28, 4-[3-(4-oxo-7-Pyrrol-1-yl-4,5-dihydro-3H-benzo[b][1,4]diazepin-2-yl)-phenyl]-thiazole-2-carboxylic Acid Ethyl Ester], the melting point was in the range of 213 to 215 °C. The compound `Cc1cc(-c2cccc(C3=Nc4ccc(-n5cccc5)cc4NC(=O)C3)c2)on1` [Example 29, 4-[3-(3-Methyl-isoxazol-5-yl)-phenyl]-8-pyrrol-1-yl-1,3-dihydro-benzo[b][1,4]diazepin-2-one] returned a melting point of 248 to 250 °C. Consider `NC(=O)c1nc(-c2cccc(C3=Nc4ccc(-n5cccc5)cc4NC(=O)C3)c2)cs1` [Example 30, 4-[3-(4-oxo-7-Pyrrol-1-yl-4,5-dihydro-3H-benzo[b][1,4]diazepin-2-yl)-phenyl]-thiazole-2-carboxylic Acid Amide], for which the melting point lay within 267 to 269 °C. Next, `O=C1CC(c2cccc(-c3csc(C(=O)NCCO)n3)c2)=Nc2ccc(-n3cccc3)cc2N1` [Example 32, 4-[3-(4-oxo-7-Pyrrol-1-yl-4,5-dihydro-3H-benzo[b][1,4]diazepin-2-yl)-phenyl]-thiazole-2-carboxylic Acid (2-Hydroxy-ethyl)-amide]: 236 to 238 °C; `O=C1CC(c2cccc(-c3csc(CO)n3)c2)=Nc2ccc(-n3cccc3)cc2N1` [Example 33, 4-[3-(2-Hydroxymethyl-thiazol-4-yl)-phenyl]-8-pyrrol-1-yl-1,3-dihydro-benzo[b][1,4]diazepin-2-one]: 185 to 190 °C (dec.). `N#CCc1cc2c(cc1I)NC(=O)CC(c1cccc(-n3ccnc3)c1)=N2` [Example 37, [4-(3-Imidazol-1-yl-phenyl)-8-iodo-2-oxo-2,3-dihydro-1H-benzo[b][1,4]diazepin-7-yl]-acetonitrile] registered a melting point of 243 to 245 °C.

In the case of `O=C1CC(c2cccc(-c3cc(CO)no3)c2)=Nc2cc(N3CCOCC3)c(C(F)(F)F)cc2N1` [Example 39, 4-[3-(3-Hydroxymethyl-isoxazol-5-yl)-phenyl]-7-morpholin-4-yl-8-trifluoromethyl-1,3-dihydro-benzo[b][1,4]diazepin-2-one], the melting point stood at 196 °C. `CN(C)Cc1cnnn1-c1cccc(C2=Nc3cc(N4CCOCC4)c(C(F)(F)F)cc3NC(=O)C2)c1` [Example 40, 4-[3-(5-Dimethylaminomethyl-[1,2,3]triazol-1-yl)-phenyl]-7-morpholin-4-yl-8-trifluoromethyl-1,3-dihydro-benzo[b][1,4]diazepin-2-one] showed a melting point of 180 °C. Next, `Cc1cc(-c2cccc(C3=Nc4cc(N5CCSCC5)c(C(F)(F)F)cc4NC(=O)C3)c2)on1` [Example 41, 4-[3-(3-Methyl-isoxazol-5-yl)-phenyl]-7-thiomorpholin-4-yl-8-trifluoromethyl-1,3-dihydro-benzo[b][1,4]diazepin-2-one]: 230 to 233 °C. Next, `COc1cc2c(cc1C(F)(F)F)NC(=O)CC(c1ccnc(C#N)c1)=N2` [Example 44, 4-(8-Methoxy-4-oxo-7-trifluoromethyl-4,5-dihydro-3H-benzo[b][1,4]diazepin-2-yl)-pyridine-2-carbonitrile]: 227 °C; `COc1cc2c(cc1C(F)(F)F)NC(=O)CC(c1cccc(-c3cc(C)no3)c1)=N2` [Example 45, 7-Methoxy-4-[3-(3-methyl-isoxazol-5-yl)-phenyl]-8-trifluoromethyl-1,3-dihydro-benzo[b][1,4]diazepin-2-one]: 225 °C. As to `O=C1CC(c2cccc(-n3cccn3)c2)=Nc2cc(N3CCOCC3)c(C(F)(F)F)cc2N1` [Example 49, 7-Morpholin-4-yl-4-(3-pyrazol-1-yl-phenyl)-8-trifluoromethyl-1,3-dihydro-benzo[b][1,4]diazepin-2-one], the melting point stood at 166 °C. `O=C1CC(c2cccc(-n3cnnc3)c2)=Nc2cc(N3CCOCC3)c(C(F)(F)F)cc2N1` [Example 50, 7-Morpholin-4-yl-4-(3-[1,2,4]triazol-4-yl-phenyl)-8-trifluoromethyl-1,3-dihydro-benzo[b][1,4]diazepin-2-one] returned a melting point of 233 to 236 °C.
